In patent US10179120B2, “Dosage regimen of ferric trimaltol” (Iron Therapeutics Holdings AG, priority 2014, dated 2019):

What was measured:
Type in all cases: in vivo, human
[1] = Example 1: 12-week placebo-controlled study of ST10 30 mg twice daily in IDA patients with IBD
Method: 128 patients suffering from IDA were randomised. Of this group […] were suffering from Crohn's disease and 53 were suffering from ulcerative colitis. All had mild to moderate disease activity and anaemia associated with IBD which was measured according to low haemoglobin levels ([…] for women and 13 g/dL (male) and were intolerant of ferrous iron, or it could not be used. There were no restrictions on the use of gastric pH modifying agents or medications.
60 patients were treated with ST10 at a 30 mg dose twice daily, before breakfast and prior to sleep on an empty stomach for a period of 12 weeks.
60 patients received a matched placebo capsule and were treated in the same way for the same period. Withdrawal from the study before 12 weeks occurred in seven ST10 subjects and nine placebo subjects. 87% of subjects completed 12 weeks of treatment.

[2] = Example 1: treatment with 30 mg ST10 twice daily for up to 64 weeks; settings: 30 mg twice daily for up to 64 weeks, 109 subjects
Method: 109 of the 128 subjects were treated with 30 mg ST10 twice daily for up to 64 weeks.

[3] = Example 2: open-label, randomised, single and repeat dose Phase I pharmacokinetic study in subjects with iron deficiency; settings: for reticulocyte haemoglobin, Mean change: baseline to day 8; for Transferrin saturation above baseline / mean serum total iron concentration above baseline: 6 h postdose
Method: These studies were primarily pharmacokinetic and conducted in subjects with iron deficiency having active inflammatory disease or acute chronic inflammation. An open-label, randomised, single and repeat dose parallel group Phase I pharmacokinetic study was carried out to evaluate the effect of single and repeated twice daily (bid) oral doses of ST10 at 30 mg, 60 mg and 90 mg for 8 days.
24 subjects with iron deficiency (with or without anaemia) were randomly allocated to one of the three ST10 dose groups as follows:
Group 1: 9 subjects received ST10, 30 mg twice daily for 7 days (days 1-7) plus a final 30 mg dose on the morning of day 8.
Group 2: 8 subjects received ST10, 60 mg twice daily for 7 days (days 1-7) plus a final 60 mg dose on the morning of day 8.
Group 3: 7 subjects received ST10, 90 mg twice daily for 7 days (days 1-7) plus a final 90 mg dose on the morning of day 8.
On day 1, following fasting for at least 1.5-2 hours beforehand, ST10 was administered (30 mg, 60 mg or 90 mg) and blood samples collected over the following 6 h for analysis. 60 mg was administered as two 30 mg capsules and 90 mg was administered as three 30 mg capsules, both as a single dose. Subjects continued dosing with ST10 on the evening of day 1 then every morning and evening for the next 6 days (Days 2 to 7).
On day 8 following fasting for at least 1.5-2 hours beforehand the last dosing of ST10 was administered (30 mg, 60 mg or 90 mg) and blood samples collected over the following 6 h for analysis.
On Days 1 and 8 blood samples were collected predose (0 h=time of ST10 dose) and at 5 minutes (for NTBI only), 15 minutes, 30 minutes, 45 minutes, and 1, 1.5, 2, 3, 4 and 6 h postdose.
Serum concentrations of transferrin, total iron binding capacity (TIBC), ferritin and soluble transferrin receptor; and reticulocyte haemoglobin concentrations (CHr) in whole blood were measured by central laboratories using appropriately validated methods.
These studies used transferrin saturation and total serum iron as measurements of iron uptake from the gut into the transport mechanisms. In addition serum ferritin was used as a measure of iron storage status at the end of the dosing period; all of these measurements are standard and well recognised.
One subject in the 60 mg dose group prematurely withdrew from the study on Day 7, so full profiles of all serum iron parameters were available in the 30 mg dose group for 9 subjects (days 1 and 8), in the 60 mg dose group 8 subjects on day 1 and for 7 subjects on day 8, and in the 90 mg dose group for 7 subjects (days 1 and 8).

ferric trimaltol [ST10]
improvement of haemoglobin levels ([1]; 30 mg twice daily, 8 weeks, p<0.0001): 1.75 g/dL | subjects with adverse events (mainly gastrointestinal) ([1]; 30 mg twice daily, 12 weeks): 38% | subjects with normalised haemoglobin levels ([1]; 30 mg twice daily, by week 12): More than 65% | tolerability ([1]; 30 mg twice daily, duration of the treatment): well tolerated | Mean Hb increase from baseline to Week 12 ([1]; 30 mg twice daily, empty stomach, 12 weeks): 2.26 g/dL | improvement of haemoglobin levels ([1]; 30 mg twice daily, week 4, p<0.0001): 1.05 g/dL | mean Hb at Week 12 ([1]; 30 mg twice daily, week 12): 13.20 g/dL | mean improvement in Hb, change from baseline compared to placebo ([1]; 30 mg twice daily, week 12, p<0.0001): 2.25 g/dL | mean Hb at baseline ([1]; ST10-treated subjects, baseline): 11.10 g/dL | blackened stools ([1]; patients in the study of Example 1): did not report blackened stools | subjects with adverse reactions [2]: 23% | reticulocyte haemoglobin, Baseline ([3]; 30 mg bid): 33.6 | reticulocyte haemoglobin, Mean change ([3]; 30 mg bid): 0.9 | reticulocyte haemoglobin, Day 8 ([3]; 30 mg bid): 34.6 | reticulocyte haemoglobin, Baseline ([3]; 60 mg bid): 31.0 | reticulocyte haemoglobin, Mean change ([3]; 60 mg bid): 3.3 | reticulocyte haemoglobin, Day 8 ([3]; 60 mg bid): 34.1 | reticulocyte haemoglobin, Baseline ([3]; 90 mg bid): 30.8 | reticulocyte haemoglobin, Mean change ([3]; 90 mg bid): 3.0 | reticulocyte haemoglobin, Day 8 ([3]; 90 mg bid): 33.9 | Transferrin saturation above baseline ([3]; Day 1, 30 mg dose group): 17.0% | mean serum total iron concentration above baseline ([3]; Day 1, 30 mg dose group): 11.8 µmol/L | Transferrin saturation above baseline ([3]; Day 1, 60 mg dose group): 47.3% | mean serum total iron concentration above baseline ([3]; Day 1, 60 mg dose group): 33.0 µmol/L | Transferrin saturation above baseline ([3]; Day 1, 90 mg dose group): 33.3% | mean serum total iron concentration above baseline ([3]; Day 1, 90 mg dose group): 24.3 µmol/L | Transferrin saturation, average maximum value ([3]; Day 1, 30 mg dose group): 45.6% | serum total iron concentration, average maximum ([3]; Day 1, 30 mg dose group): 32.3 µmol/L | Transferrin saturation, average maximum value ([3]; Day 1, 60 mg dose group): 69.8% | serum total iron concentration, average maximum ([3]; Day 1, 60 mg dose group): 49.1 µmol/L | Transferrin saturation, average maximum value ([3]; Day 1, 90 mg dose group): 67.3% | serum total iron concentration, average maximum ([3]; Day 1, 90 mg dose group): 48.7 µmol/L | Mean serum ferritin ([3]; day 1, 30 mg dose group): around 15 μg/L | Mean serum ferritin ([3]; day 1, 60 mg dose group): ~10 µg/L | Mean serum ferritin ([3]; day 1, 90 mg dose group): ~13 µg/L | Mean serum ferritin ([3]; day 8, 30 mg dose group): ~22 µg/L | Mean serum ferritin ([3]; day 8, 60 mg dose group): ~22 µg/L | Mean serum ferritin ([3]; day 8, 90 mg dose group): ~32 µg/L | tolerability ([3]; doses of 30 mg and above): well tolerated
